For data set [1], the system named is SARS-CoV-2 live virus (B.1 lineage), Vero E6 cells. Type of data set: cell-based.
Another data set can be described thus: Cytocompatibility (CCK8). Type of data set: cell-based, human. As to conditions: human, A549 cells, read-out: cytocompatibility, normalized to serum free media; for viability at 6 h, 10 µM: 0.01 mM peptide; for viability at 6 h, 100 µM: 0.1 mM peptide; for viability at 6 h, 1000 µM: 1 mM peptide. The method, then: Cytocompatibility of the peptides was evaluated at 1, 0.1, and 0.01 mM with A549 cells (ATCC CCL-185) cultured in complete media consisting of 90% F-12K and 10% FBS. The A549 cells were utilized after their first passage and seeded at 10,000 cells/well in a 96-well plate for 24 hours. The conditions were prepared in serum-free A549 media and introduced into the wells for 6 hours, after which the condition media were aspirated, the wells were washed once with PBS, and 10 µL of CCK8 was added to 100 µL of PBS[32]. The plate was incubated for 1 hour and read on a Tecan M200 Infinite plate reader at an absorbance of 450 nm with a reference wavelength of 650 nm. The results were analyzed and normalized to the serum-free media control[28],[32],[76].

Data set [2] in a line: Ultracentrifugation pellet / solid-state NMR of assemblies. As to conditions: 10 mg/mL, 150,000 RCF, 30 minutes, 4 °C. Type of data set: physicochemical. The method, then:
To experimentally validate E1:ESBP3 peptide mixtures, solid-state NMR experiments were pursued. ^13C solid-state NMR measurements were conducted using cross-polarization magic angle spinning (^1H-^13C CPMAS) to evaluate sample structural order and structural differences between samples. The peptides were not isotopically enriched, so the ^13C signal was from the 1% natural abundance for ^13C.
After peptide dissolution at 10 mg/mL, the samples were concentrated by ultracentrifugation for 30 minutes in Bruker 3.22 mm NMR rotors at 4 °C and 150,000 RCF in Ultra-clear tubes of SW-41 Ti swinging bucket rotor fitted onto a Beckman Optima XPN-100 centrifuge. A 11.75 T magnet Bruker Avance III HD 500 spectrometer (500 MHz, ^1H NMR Larmor frequency) equipped with a room temperature 3.2 mm Bruker Low-E ^1H/^13C/^15N NMR probe was used for measurements. ^13C chemical shift referencing was conducted using adamantane referenced to tetramethylsilane. 1D ^13C cross-polarization magic angle spinning (CPMAS) spectra were collected using the standard Bruker cp pulse sequence. A 10 kHz magic angle spinning speed was used for all samples. The channels frequency for the optimization of the Hartmann-Hahn condition for ^1H and ^13C are 500.133 MHz and 125.771 MHz, respectively. A recycle delay time of 4 seconds (d1) and dwell time of 5 μs (DW) were used. Acquisition time was set to 10.24 ms. […]

Data set [3] deals with the molecule itself. Put plainly: co-sedimentation + other: solid-state NMR (1H-13C CPMAS).

Like-named read-outs stand apart in the source and are kept apart here. Peptide text beside a SMILES is read from it.

For `CC(=O)N[C@@H](CCC(=O)O)C(=O)N[C@@H](CO)C(=O)N[C@@H](CC(C)C)C(=O)N[C@@H](CO)C(=O)N[C@@H](CC(C)C)C(=O)N[C@@H](CO)C(=O)N[C@@H](CC(C)C)C(=O)N[C@@H](CO)C(=O)N[C@@H](CC(C)C)C(=O)N[C@@H](CO)C(=O)N[C@@H](CC(C)C)C(=O)N[C@@H](CO)C(=O)N[C@@H](CC(C)C)C(=O)N[C@@H](CCC(=O)O)C(N)=O` [E1] (Ac-ESLSLSLSLSLSLE-NH2), the “Comparative, Average” value in data set [1] came to 65.5306. Also, the “live virus plaque inhibition, in words” value in data set [1] is on record as “no major differences”. Also, the viability at 6 h, 10 µM in “Cytocompatibility (CCK8)” (replicate 1, CCK8, 6 h) worked out at 117%; in the data set “Cytocompatibility (CCK8)” (replicate 2, CCK8, 6 h), 122%. The viability at 6 h, 100 µM in “Cytocompatibility (CCK8)” (replicate 1, CCK8, 6 h) stood at 111%; in the data set “Cytocompatibility (CCK8)” (replicate 2, CCK8, 6 h), 147%; in the data set “Cytocompatibility (CCK8)” (replicate 3, CCK8, 6 h) it was 117%. The viability at 6 h, 1000 µM was 169% in the data set “Cytocompatibility (CCK8)” (replicate 1, CCK8, 6 h exposure, absorbance 450 nm); 195% in “Cytocompatibility (CCK8)” (replicate 2, CCK8, 6 h); 139% in “Cytocompatibility (CCK8)” (replicate 3, CCK8, 6 h). In data set [2], the “ultracentrifuge pellet (assembly into nanofibers)” value was “centrifuge pellets”.
For Ac-ESLSLSLSLSLSLE-NH2 (also called E-(SL)6-E; E-flanked SAP) [E1 self-assembling peptide (E-SLSLSLSLSLSL-E)], in data set [3], the binding result was “binds”.
